Measured values taken from PubChem BioAssay (NCI).
“And” between values parts separate entries of the source, which are not always exact repeats. Equal entries are not always repeated.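 Values below derive from 48-hour exposures of cells grown in 96-well plates, with endpoints linearly interpolated between the two concentrations bracketing the appropriate inhibition level. GI50 marks 50% less growth. Definition used: TGI = concentration required for complete inhibition of growth.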

Tests used:
Assay in all cases: NCI tumour cell line growth inhibition, 48 h
DMS 273 small cell lung = tested on: DMS 273 small cell lung
HOP-18 NSCLC = tested on: HOP-18 NSCLC
TK-10 renal = tested on: TK-10 renal
XF 498 CNS = tested on: XF 498 CNS
SNB-78 CNS = tested on: SNB-78 CNS
BT-549 breast = tested on: BT-549 breast
MCF7 breast = tested on: MCF7 breast
NCI/ADR-RES ovarian = tested on: NCI/ADR-RES ovarian
PC-3 prostate = tested on: PC-3 prostate
T-47D breast = tested on: T-47D breast

`CC(C)N(C(=O)C12C3C4C1(I)C1C2C3(I)C41C(=O)N(C(C)C)C(C)C)C(C)C` (stereo not drawn) was tested, and the TGI (DMS 273 small cell lung) was > 100 µM, the TGI (HOP-18 NSCLC) was > 100 µM and the TGI (TK-10 renal) was > 100 µM. For the same molecule, the TGI (XF 498 CNS) was > 100 µM.
`O=P1(c2ccccc2)CCCCC1` was tested, and the TGI (DMS 273 small cell lung) was > 100 µM, the TGI (HOP-18 NSCLC) was > 100 µM and the TGI (SNB-78 CNS) was > 100 µM. For the same molecule, the TGI (TK-10 renal) was > 100 µM.
For `CC1COC(C)(C)P(=O)(c2ccccc2)C1` (stereo not drawn), the TGI (DMS 273 small cell lung) was > 100 µM, the TGI (HOP-18 NSCLC) was > 100 µM and the TGI (SNB-78 CNS) was > 100 µM. The TGI (TK-10 renal) was > 100 µM and the TGI (XF 498 CNS) was > 100 µM.
In the case of `CC(=O)[O][Ga]([Br])[O]C(C)=O`, the GI50 (DMS 273 small cell lung) is reported as > 100 µM, the TGI (DMS 273 small cell lung) is reported as > 100 µM and the GI50 (HOP-18 NSCLC) is reported as > 100 µM. The TGI (HOP-18 NSCLC) was > 100 µM, the GI50 (SNB-78 CNS) was > 100 µM and the TGI (SNB-78 CNS) was > 100 µM. The GI50 (TK-10 renal) was > 100 µM, the TGI (TK-10 renal) was > 100 µM and the GI50 (XF 498 CNS) was > 100 µM. The TGI (XF 498 CNS) was > 100 µM.
`S=c1[nH]c(=S)c2nnn(-c3ccccc3)c2[nH]1` was tested, and the TGI (DMS 273 small cell lung) was > 100 µM, the TGI (TK-10 renal) was > 100 µM and the TGI (XF 498 CNS) was > 100 µM.
`CC(C)C(=O)Nc1nc2c(ncn2C2OC(CO)C(O)C2O)c(=O)[nH]1` (stereo not drawn) was tested, and the TGI (DMS 273 small cell lung) was > 100 µM, the TGI (HOP-18 NSCLC) was > 100 µM and the TGI (SNB-78 CNS) was > 100 µM. For the same molecule, the TGI (TK-10 renal) was > 100 µM and the TGI (XF 498 CNS) was > 100 µM.
`COC(=O)[C@H]1C=C[C@@H](C)n2c(=O)c3cc4ccccc4cc3c(=O)n21` was tested, and the TGI (DMS 273 small cell lung) was > 100 µM, the TGI (SNB-78 CNS) was > 100 µM and the TGI (TK-10 renal) was > 100 µM. The TGI (XF 498 CNS) was > 100 µM.
In the case of `Cc1ccc(C)c(N=C2NC(=O)C(CC(=O)Nc3ccc(Cl)cc3Cl)S2)c1` (stereo not drawn), the TGI (DMS 273 small cell lung) is reported as > 100 µM, the TGI (HOP-18 NSCLC) is reported as > 100 µM and the TGI (TK-10 renal) is reported as > 100 µM. For the same molecule, the TGI (XF 498 CNS) was 90.5 µM.
In the case of `COC(=O)/C=C1\CCC(C)O1` (stereo not drawn), the TGI (DMS 273 small cell lung) is reported as > 100 µM, the TGI (SNB-78 CNS) is reported as > 100 µM and the TGI (TK-10 renal) is reported as > 100 µM. For the same molecule, the TGI (XF 498 CNS) was > 100 µM.
`O=C(O)CC(NC(=O)CP(=O)(O)O)C(=O)O` (stereo not drawn) was tested, and the TGI (BT-549 breast) was > 10000 µM, the TGI (DMS 273 small cell lung) was > 9020 µM and the TGI (HOP-18 NSCLC) was > 9690 µM. The TGI (MCF7 breast) was > 10000 µM, the TGI (NCI/ADR-RES ovarian) was > 10000 µM and the TGI (PC-3 prostate) was > 10000 µM. The TGI (SNB-78 CNS) was > 10000 µM, the TGI (T-47D breast) was > 10000 µM and the TGI (TK-10 renal) was > 10000 µM. For the same molecule, the TGI (XF 498 CNS) was > 3160 µM.
For `CC(C)N(CCn1c2c3ccccc3ccc2c2oc(=O)c3ccccc3c21)C(C)C`, the TGI (HOP-18 NSCLC) was > 86.6 µM, the TGI (SNB-78 CNS) was > 100 µM and the TGI (TK-10 renal) was > 100 µM. For the same molecule, the TGI (XF 498 CNS) was > 100 µM.
With `Cc1ccc(NC(=O)CSc2nnc(-c3ccc(N=Cc4ccc(Cl)cc4)cc3)o2)cc1` the TGI (DMS 273 small cell lung) was > 100 µM, the TGI (HOP-18 NSCLC) was > 100 µM and the TGI (SNB-78 CNS) was > 100 µM. For the same molecule, the TGI (TK-10 renal) was > 100 µM and the TGI (XF 498 CNS) was > 100 µM.
`O=Cc1ccc2c(c1-c1c(C=O)ccc3c1OCO3)OCO2` was tested, and the TGI (DMS 273 small cell lung) was > 100 µM, the TGI (HOP-18 NSCLC) was > 100 µM and the TGI (SNB-78 CNS) was > 100 µM. For the same molecule, the TGI (TK-10 renal) was > 100 µM.
With `Cc1cc(NS(=O)(=O)c2ccc(Nc3c4ccccc4nc4c(C(=O)N5CCN(CCO)CC5)ccc(Cl)c34)cc2)no1` the TGI (DMS 273 small cell lung) was > 100 µM, the TGI (TK-10 renal) was > 100 µM and the TGI (XF 498 CNS) was > 100 µM.
`Cc1cc(C)nc(NS(=O)(=O)c2ccc(NC(=O)c3cccc4c(Nc5ccc(S(N)(=O)=O)cc5)c5ccccc5nc34)cc2)n1` was tested, and the TGI (DMS 273 small cell lung) was > 100 µM, the TGI (HOP-18 NSCLC) was > 100 µM and the TGI (SNB-78 CNS) was 52.3 µM. The TGI (TK-10 renal) was > 100 µM and the TGI (XF 498 CNS) was 88.2 µM.
With `O=C1OCC2C1C1c3ccccc3C(O)c3ccccc3C21` (stereo not drawn) the TGI (HOP-18 NSCLC) was > 100 µM, the TGI (SNB-78 CNS) was > 100 µM and the TGI (TK-10 renal) was > 100 µM. For the same molecule, the TGI (XF 498 CNS) was > 100 µM.
With `CC(=O)O[C@H]1CCC2[C@@H]3CCC4Nc5[nH]ncc5C[C@]4(C)C3CC[C@@]21C` (stereo partly drawn) the TGI (DMS 273 small cell lung) was > 100 µM, the TGI (HOP-18 NSCLC) was > 100 µM and the TGI (TK-10 renal) was > 100 µM. For the same molecule, the TGI (XF 498 CNS) was 87 µM.
For `CC[C@H]1CN2CCc3cc(OC)c(OC)cc3[C@@H]2C[C@@H]1C[C@H]1NCCc2c1[nH]c1ccc(O)cc21`, the GI50 (BT-549 breast) was 0.558 µM, the TGI (BT-549 breast) was 0.602 µM and the GI50 (DMS 273 small cell lung) was 0.0261 µM. For the same molecule, the TGI (DMS 273 small cell lung) was 0.084 µM and 0.024 µM, the GI50 (HOP-18 NSCLC) was 0.188 µM and 0.0283 µM and the TGI (HOP-18 NSCLC) was 0.711 µM and 0.0824 µM and 0.449 µM. For the same molecule, the TGI (MCF7 breast) was 0.137 µM, the GI50 (NCI/ADR-RES ovarian) was 0.0161 µM and the GI50 (PC-3 prostate) was 0.0345 µM. The TGI (PC-3 prostate) was 0.814 µM, the GI50 (SNB-78 CNS) was 0.0273 µM and 0.0257 µM and the TGI (SNB-78 CNS) was 0.0828 µM and 0.0713 µM and 0.11 µM. For the same molecule, the GI50 (T-47D breast) was 0.0233 µM, the TGI (T-47D breast) was 0.0897 µM and 0.0583 µM and the GI50 (TK-10 renal) was 0.0943 µM. The TGI (TK-10 renal) was 0.277 µM and 0.875 µM and 0.728 µM, the GI50 (XF 498 CNS) was 0.0415 µM and the TGI (XF 498 CNS) was 0.0586 µM and 0.268 µM.
For `COC(=O)/C=C/c1c(CC=C(C)C)ncn1C`, the TGI (DMS 273 small cell lung) was > 100 µM, the TGI (HOP-18 NSCLC) was > 100 µM and the TGI (SNB-78 CNS) was > 100 µM. For the same molecule, the TGI (TK-10 renal) was > 100 µM and the TGI (XF 498 CNS) was > 100 µM.
`CNS(=O)(=O)NNS(=O)(=O)c1ccc(Br)cc1` was tested, and the TGI (DMS 273 small cell lung) was > 100 µM, the TGI (HOP-18 NSCLC) was > 100 µM and the TGI (SNB-78 CNS) was > 100 µM. The TGI (TK-10 renal) was > 100 µM and the TGI (XF 498 CNS) was > 100 µM.
In the case of `Cc1c(/C=N/NC(=O)c2ccc(Cl)cc2)c(=O)n(-c2ccccc2)n1C`, the TGI (DMS 273 small cell lung) is reported as > 100 µM, the TGI (HOP-18 NSCLC) is reported as > 100 µM and the TGI (SNB-78 CNS) is reported as > 100 µM. The TGI (TK-10 renal) was > 100 µM.
`CCCO/S(=N\S(=O)(=O)c1ccccc1)c1ccccc1[N+](=O)[O-]` (stereo not drawn) was tested, and the TGI (DMS 273 small cell lung) was > 100 µM, the TGI (SNB-78 CNS) was > 100 µM and the TGI (XF 498 CNS) was > 100 µM.
In the case of `O=C(/C=C/c1ccccc1Cl)NC1C=Nc2ccc([N+](=O)[O-])cc2NC1` (stereo not drawn), the TGI (DMS 273 small cell lung) is reported as > 100 µM, the TGI (HOP-18 NSCLC) is reported as > 100 µM and the TGI (SNB-78 CNS) is reported as > 100 µM. The TGI (TK-10 renal) was > 100 µM and the TGI (XF 498 CNS) was > 100 µM.
`N#CC1=C(N)Oc2cc(O)ccc2C1c1cccc2ccccc12` (stereo not drawn) gave a GI50 (BT-549 breast) of 7.52 µM, a TGI (BT-549 breast) of 29.6 µM and a GI50 (MCF7 breast) of 8.69 µM. The TGI (MCF7 breast) was 24.5 µM, the GI50 (NCI/ADR-RES ovarian) was 3.98 µM and the TGI (NCI/ADR-RES ovarian) was 22.8 µM. The GI50 (PC-3 prostate) was 5.21 µM, the TGI (PC-3 prostate) was 29.2 µM and the GI50 (T-47D breast) was 17.2 µM. It also gave a TGI (T-47D breast) of 58.7 µM, a GI50 (TK-10 renal) of 15.6 µM and a TGI (TK-10 renal) of 45.6 µM.
With `O=C1NC(=O)/C(=C\c2ccccc2)C2=C1CCCC2` the GI50 (BT-549 breast) was 4.13 µM, the TGI (BT-549 breast) was 16.4 µM and the GI50 (MCF7 breast) was 5.15 µM. For the same molecule, the TGI (MCF7 breast) was 25 µM, the GI50 (NCI/ADR-RES ovarian) was 7.54 µM and the TGI (NCI/ADR-RES ovarian) was 19.2 µM. For the same molecule, the GI50 (PC-3 prostate) was 6.36 µM, the TGI (PC-3 prostate) was 35.5 µM and the GI50 (T-47D breast) was 10.2 µM. The TGI (T-47D breast) was 29.9 µM, the GI50 (TK-10 renal) was 12 µM and the TGI (TK-10 renal) was 25.3 µM.
Work on `COCC1(CO)C(=O)C2CCN1CC2` (stereo not drawn) yielded a GI50 (BT-549 breast) of 15.6 µM, a TGI (BT-549 breast) of 29.5 µM and a GI50 (MCF7 breast) of 19.1 µM. The TGI (MCF7 breast) was 52.6 µM, the GI50 (NCI/ADR-RES ovarian) was 25.6 µM and the TGI (NCI/ADR-RES ovarian) was > 78.6 µM. The GI50 (PC-3 prostate) was 36 µM, the TGI (PC-3 prostate) was > 58.4 µM and the GI50 (T-47D breast) was 9.55 µM. The TGI (T-47D breast) was 34.3 µM, the GI50 (TK-10 renal) was 16.8 µM and the TGI (TK-10 renal) was 31.1 µM.
